According to patent US4220714A, “Composition for inhibiting adenylate-kinase and its use” (priority 1977, dated 1980):

Assays:
[1] = system: adenylate kinase; settings: erythrocyte AK; agent used alone (AMP without fluoride, fluoride without AMP); FIG. 1, 2
Protocol: Normal and abnormal sera (from myocardial infarct) and the haemolysate from human erythrocytes were used as sources of CK and of AK.
The AK activity was determined according to the method by Szasz et al. (Clin. Chem., 22, 1806, (1976)). […] A spectrophotometer, Beckman-25 with basin-supporting cradle and thermostat, was used. The reaction temperature for determining both AK and CK was 37° C.

[2] = system: creatine kinase from serum; test: Creatine kinase (CK) activity from serum, coupled HK/G-6-PD reaction at 340 nm; type: biochemical, human; settings: FIG. 3
Excerpt: Each value represent the average of five independent readings.
All the CK activities were corrected by allowing for the AK activity.
The same samples were used both for AMP and the fluoride. The ordinates report the percentage relative to the inhibition of the creatine kinase and the abscissae indicate the concentrations of AMP, or fluoride, in millimols per liter, in FIG. 3.

[3] = system: CK; settings: AMP at 5 to 10 times the ADP concentration; cited from earlier work
[4] = target: T1, erythrocyte AK (Homo sapiens, UniProt P00568); test: CK determination in normal sera without and with added erythrocyte AK; type: biochemical; settings: AMP only at 5 millimols per liter
T1 construct: the haemolysate from human erythrocytes; from tissue; host or cells: human erythrocytes (haemolysate)
T1 sequence (P00568 1-194): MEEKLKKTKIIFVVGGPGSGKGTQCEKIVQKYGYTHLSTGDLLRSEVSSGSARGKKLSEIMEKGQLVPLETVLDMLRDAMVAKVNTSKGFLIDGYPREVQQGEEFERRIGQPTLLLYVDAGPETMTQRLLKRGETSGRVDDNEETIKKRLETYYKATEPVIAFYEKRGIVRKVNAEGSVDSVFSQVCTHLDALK
Excerpt: Such samples have been analyzed with the method described herein and with that which uses AMP at 5 millimols per liter.

Row | inhibition of CK activity ([2]; AMP at 20 millimols per liter) | excess of CK values of samples with erythrocyte AK over normal samples [4] | difference in CK activity between normal samples and samples with added erythrocyte AK ([4]; P less than 0.01) | SMILES | concentration at which 95% of inhibition of AK is attained [1] | inhibition of CK activity ([2]; fluoride at 25 millimols per liter) | inhibition of the activity of the CK [3]
1 | – | – | – | [F-].[K+] [fluoride, potassium fluoride] | 25 millimols per liter | ≥ 4% | –
2 | more than 10% | about 50% | most significant difference | Nc1ncnc2c1ncn2[C@@H]1O[C@H](COP(=O)(O)O)[C@@H](O)[C@H]1O [AMP, adenosine-5'-monophosphate] | more than 20 millimols per liter | – | slightly inhibits
